Holding throughout (test): combination Emax (second highest fraction inhibited in the dose matrix, 72 h); higher = more inhibition; extreme values may be limits of the assay
In test [1] the test system is CAL-39 (Other Solid Carcinomas). In short, it runs like this:
(§1)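 Bliss excess equals the observed combination effect minus the expected value EA + EB − EA·EB, where EA and EB are the effects of each agent alone. Combination Emax is the second-highest inhibition within the matrix. Inhibition was scaled from CellTiter-Glo 2.0 luminescence, with 0 set by vehicle wells and 1 by blank wells, after 72 hours of two-drug dosing of cells plated in 1536-well plates.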

For test [2], the system named is D-283MED (Other Solid Carcinomas). In short, it runs like this:
as §1

Test [3] deals with EFM-192A (Breast Carcinoma). Put shortly: as §1
Test [4] has as its system EKVX (Non-Small Cell Lung Carcinoma). In short, it runs like this: as §1
The next test relates to H4 (Low Grade Glioma). In short, it runs like this: as §1
For test [5], the system named is HCC-827 (Lung Adenocarcinoma). In short, it runs like this: as §1
Test [6] concerns HCT-116 (Colorectal Carcinoma). Put shortly:
as §1

For the next test, the system named is HuO9 (Osteosarcoma). In short, it runs like this: as §1
For the next test, the system named is MCF7 (Breast Carcinoma). Put shortly:
as §1

A further test deals with MSTO-211H (Mesothelioma). Put shortly:
as §1

Test [7] concerns NCI-H1688 (Small Cell Lung Carcinoma). Put shortly:
as §1

The subject of test [8] is NOMO-1 (Acute Myeloid Leukemia). In short, it runs like this:
as §1

The test system of test [9] is RCC10RGB (Kidney Carcinoma). In short, it runs like this: as §1
Test [10] relates to SK-LMS-1 (Other Solid Carcinomas). In short, it runs like this:
as §1

The test system of a further test is SK-MEL-1 (Melanoma). In short, it runs like this:
as §1

For test [11], the system named is SKN-3 (Head and Neck Carcinoma). Put shortly: as §1
For test [12], the system named is SLVL (B-Cell Non-Hodgkin's Lymphoma). Put shortly: as §1
For test [13], the system named is SW48 (Colorectal Carcinoma). Put shortly: as §1
Test [14] has as its system SW948 (Colorectal Carcinoma). Put shortly:
as §1

The next test concerns Saos-2 (Osteosarcoma). In short, it runs like this:
as §1

Molecules are shown by their SMILES.

Take `CN(CCO)CC[C@H](CSc1ccccc1)Nc1ccc(S(=O)(=O)NC(=O)c2ccc(N3CCC([C@@H](O)c4ccccc4-c4ccc(Cl)cc4)CC3)cc2)cc1S(=O)(=O)C(F)(F)F` [AZD4320] + Cn1cnc2c(F)c(Nc3ccc(Br)cc3Cl)c(C(=O)NOCCO)cc21 [Selumetinib] (first compound max 1 µM, 7x7, partner max 3 µM): the “combination Emax” value in [1] is 0.604; in test [2], 0.918; in test [3], 0.284; in test [4], 0.314; with H4 (Low Grade Glioma) it was 0.418; in test [5], 0.298. Besides, the “combination Emax” value was determined as 0.709 in test [6]; 0.979 in the test on HuO9 (Osteosarcoma); 0.402 in the test on MCF7 (Breast Carcinoma); 0.531 in the test with MSTO-211H (Mesothelioma); 0.468 in test [7]; 1 in [8]. The “combination Emax” value amounted to 0.576 in test [9]; 0.924 in test [10]; 0.976 in the test on SK-MEL-1 (Melanoma); 0.355 in [11]; 0.966 in test [12]; 0.914 in test [13]. For the same compound, the “combination Emax” value in test [14] came to 0.79; in the test on Saos-2 (Osteosarcoma), 0.517.
As for `Cc1c2c(nn1C)CSCc1cc(n(C)n1)CSc1cc(c3ccccc3c1)OCCCc1c(C(=O)O)n(C)c3c-2c(Cl)ccc13` [AZD5991] + CCN(CCO)CCCOc1ccc2c(Nc3cc(CC(=O)Nc4cccc(F)c4)[nH]n3)ncnc2c1 [AZD2811] (first compound max 1 µM, 7x7, partner max 1 µM), the “combination Emax” value in test [1] was 0.815; in [2], 0.639; in test [3], 0.699; in [4] it was 0.226; in the test with H4 (Low Grade Glioma), 0.586; in test [5], 0.245. Also, the “combination Emax” value in test [6] was 0.438; in the test on HuO9 (Osteosarcoma), 0.991; in the test on MCF7 (Breast Carcinoma) it was 0.692; with MSTO-211H (Mesothelioma), 0.443; in test [7] it was 0.314; in test [8] it was 0.93. Also, the “combination Emax” value is 0.292 in [9]; 0.272 in [10]; 0.312 with SK-MEL-1 (Melanoma); 0.271 in test [11]; 0.768 in test [12]; 0.984 in test [13]. For the same compound, the “combination Emax” value amounted to 0.587 in [14] and 0.816 in the test with Saos-2 (Osteosarcoma).
For the compound `CN(CCO)CC[C@H](CSc1ccccc1)Nc1ccc(S(=O)(=O)NC(=O)c2ccc(N3CCC([C@@H](O)c4ccccc4-c4ccc(Cl)cc4)CC3)cc2)cc1S(=O)(=O)C(F)(F)F` [AZD4320] + C=CCn1c(=O)c2cnc(Nc3ccc(N4CCN(C)CC4)cc3)nc2n1-c1cccc(C(C)(C)O)n1 [AZD1775] (first compound max 1 µM, partner max 1 µM), the “combination Emax” value in test [1] amounted to 0.345; in test [2], 0.985; in test [3], 0.302; in test [4], 0.244; in the test on H4 (Low Grade Glioma) it was 1; in test [5], 0.301. For the same compound, the “combination Emax” value in test [6] came out at 0.572; in the test with HuO9 (Osteosarcoma), 0.949; in the test with MCF7 (Breast Carcinoma), 0.51; in the test on MSTO-211H (Mesothelioma) it was 0.933; in test [7], 0.87; in test [8] it was 0.97. Moreover, the “combination Emax” value in test [9] was found to be 0.552; in [10], 0.778; with SK-MEL-1 (Melanoma) it was 0.584; in test [11], 0.368; in test [12], 0.966; in [13] it was 0.825. For the same compound, the “combination Emax” value in test [14] came out at 0.745; in the test with Saos-2 (Osteosarcoma), 0.707.
As for `COc1cccc2c1C(=O)c1c(O)c3c(c(O)c1C2=O)C[C@@](O)(C(=O)CO)C[C@@H]3O[C@H]1C[C@H](N)[C@H](O)[C@H](C)O1` [Doxorubicin] + Cc1cc2ncnn2cc1Nc1ncc2c(n1)n(C1CCOCC1)c(=O)n2C [AZD7648] (first compound max 1 µM, 7x7, partner max 10 µM), the “combination Emax” value in test [1] was determined as 0.654; in test [2] it was 0.943; in [3], 0.368; in test [4], 0.378; in the test on H4 (Low Grade Glioma), 0.818; in test [5], 0.72. Also, the “combination Emax” value is 0.918 in test [6]; 0.897 in the test on HuO9 (Osteosarcoma); 0.623 with MCF7 (Breast Carcinoma); 0.813 in the test with MSTO-211H (Mesothelioma); 0.732 in [7]; 0.966 in [8]. For the same compound, the “combination Emax” value in [9] was 0.29; in [10] it was 0.82; in the test with SK-MEL-1 (Melanoma), 0.593; in [11], 0.32; in test [12], 0.975; in test [13], 0.94. Further, the “combination Emax” value in test [14] came out at 0.52; with Saos-2 (Osteosarcoma), 0.862.
As for `Cc1c2c(nn1C)CSCc1cc(n(C)n1)CSc1cc(c3ccccc3c1)OCCCc1c(C(=O)O)n(C)c3c-2c(Cl)ccc13` [AZD5991] + CN(C)CCCOc1ccc(-c2ccc3ncc4c(c3c2)n(C2CCOCC2)c(=O)n4C)cn1 [AZD0156] (first compound max 1 µM, 7x7, partner max 1 µM), the “combination Emax” value amounted to 0.515 in test [1]; 0.36 in test [2]; 0.587 in test [3]; 0.239 in [4]; 0.448 with H4 (Low Grade Glioma); 0.345 in test [5]. Moreover, the “combination Emax” value was found to be 0.265 in test [6]; 1 in the test with HuO9 (Osteosarcoma); 0.612 in the test on MCF7 (Breast Carcinoma); 0.188 with MSTO-211H (Mesothelioma); 0.276 in test [7]; 0.863 in [8]. The “combination Emax” value in test [9] stood at 0.243; in test [10] it was 0.205; in the test with SK-MEL-1 (Melanoma), 0.261; in test [11], 0.339; in test [12] it was 0.425; in [13] it was 0.216. Besides, the “combination Emax” value came out at 0.296 in [14] and 0.239 with Saos-2 (Osteosarcoma).
